From paper PMC10675604, “Cetirizine and Levetiracetam as Inhibitors of Monoacylglycerol Lipase: Investigating Their Repurposing Potential as Novel Osteoarthritic Pain Therapies” (Pharmaceuticals, 2023)

Molecular target: T1, monoacylglycerol lipase (MAGL) (Homo sapiens, UniProt Q99685)
T1 construct: gene MGLL
T1 sequence (Q99685 1-303): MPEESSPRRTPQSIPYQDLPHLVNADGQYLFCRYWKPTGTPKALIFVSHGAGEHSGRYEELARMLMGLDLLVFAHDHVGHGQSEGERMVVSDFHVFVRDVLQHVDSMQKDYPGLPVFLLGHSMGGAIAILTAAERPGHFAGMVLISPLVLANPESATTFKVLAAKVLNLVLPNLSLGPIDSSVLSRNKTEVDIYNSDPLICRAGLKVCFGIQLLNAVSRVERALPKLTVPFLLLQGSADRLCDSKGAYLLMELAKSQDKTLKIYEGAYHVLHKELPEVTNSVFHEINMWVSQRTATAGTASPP
Assay: colorimetric MAGL inhibition assay (Cayman kit […], 4-nitrophenyl acetate hydrolysis, […] nm)
Format: biochemical

SMILES | IC50
O=C(O)COCCN1CCN(C(c2ccccc2)c2ccc(Cl)cc2)CC1 (centres unmarked) [cetirizine] | 9.39 µM
CC[C@@H](C(N)=O)N1CCCC1=O [levetiracetam] | 3.01 µM
